Reference: patent US20140329863A1 (priority 2011, published 2014)
In brackets after ≈: the same amount, converted by molar mass. Read-outs that look alike come from different tables or passages of the source.

Key:
MDCK-MDR1 cells = assay: Permeability in MDCK-MDR1 cells; settings: MDR1-MDCK cell monolayers; for Permeability PA→B: apical to basal; for Permeability PB→A: basal to apical
[1] = tested on: PrP^Sc in nondividing ScN2a-cl3 cells; type: cell-based, mouse; settings: read-out: Non-Dividing ELISA EC50 (μM) Mean (n = 3); ScN2a-c13 non-dividing cells; mean n = 3
[2] = Hepatic microsomal stability, rat; settings: […]
N2a-cl3 cells [3] = settings: read-out: Dividing Calcein EC50 (μM) Mean (n = 3)
[4] = tested on: PrP^Sc in dividing ScN2a-cl3 cells; type: cell-based, mouse; parameters: Dividing ELISA pEC50 (μM) 1st Expt. / Dividing ELISA pEC50 (μM) 2nd Expt. / Dividing ELISA pEC50 (μM) 3rd Expt. / Dividing ELISA pEC50 (μM) Mean: unit not given here
Binding in human plasma = settings: 1 μM; mean ± SD, n = 3 (warfarin n = 2)
[5] = Single-dose pharmacokinetic studies in female FVB mice (PO, IV, IP); type: in vivo, mouse; settings: single 40 mg/kg oral dose
Method: For in-vivo pharmacokinetic studies, compounds were dissolved in a formulation containing 20% propylene glycol, 5% ethanol, 5% labrosol, and 70% polyethylene glycol 400 (PEG400) and administered by oral gavage to female FVB mice weighing ˜25 g. At specified time points after dosing (0.25, 0.5, 1, 2, 4, 6, and 24 h), 2 animals were euthanized by CO2, and ˜1 mL blood (by cardiac puncture) and brain samples were collected. The heparinized blood samples were centrifuged to obtain plasma, which was stored at −80° C. until analysis. Brain samples were weighed, diluted […] with water, and then homogenized using a Precellys 24 tissue homogenizer. Brain homogenates (20% wt/vol) were stored at −80° C. until analysis. Pharmacokinetic protocols involving animals were all reviewed and approved by the UCSF institutional animal care and use committee (IACUC).
Plasma and brain homogenate samples were extracted using a protein-precipitation method and analyzed by specific LC/MS/MS methods developed for each compound dosed in vivo. The analytical method accuracy and precision were monitored by analyzing quality control (QC) samples that were prepared and treated using the same methods as calibration standards for the plasma or brain homogenate samples.
The data were used to calculate the area under the concentration-time curve (AUClast) by noncompartmental analysis with sparse sampling performed using Phoenix WinNonlin 6.1 software (Pharsight, Mountain View, Calif.).
Pharmacokinetic protocols employing mice were reviewed and approved by the UCSF Institutional Animal Care and Use Committee (IACUC). Female FVB mice, weighing approximately 25 g, were used for all in vivo pharmacokinetic studies. Mice were housed with free access to food and water, and were maintained on 12-h light/dark cycles for 1 week before dosing studies were initiated.
For the single-dose of 40 mg/kg, compounds were dissolved in a formulation containing 5% propylene glycol, […] α-tocopheryl polyethylene glycol 1000 succinate (TPGS) and 70% polyethylene glycol 400 (PEG400), and administered by oral gavage. Two animals per time point were used. At specified time points after dosing (0.5, 1, 2, 4, 6, and 24 h), animals were euthanized by CO2, and blood for plasma (by cardiac puncture) and brain samples were collected. The heparinized blood samples were centrifuged to obtain plasma. Brain samples were weighed, diluted 10-fold with water, and then homogenized using a Precellys 24 tissue homogenizer. The brain and plasma samples were flash-frozen on dry ice and then stored at −80° C. until analysis. For the single-dose administration at 10 mg/kg, compounds were dissolved in a formulation containing 20% propylene glycol, 5% ethanol, 5% labrosol, and 70% PEG400, and administered by oral gavage. Two animals per time point were used. At specified time points after dosing (0.25, 0.5, 1, 2, 4, 6, and 24 h), animals were euthanized by CO2, and blood for plasma (by cardiac puncture) and brain samples were collected. The heparinized blood samples were centrifuged to obtain plasma. Brain samples were weighed, diluted five-fold with water, and then homogenized using a Precellys 24 tissue homogenizer. The brain and plasma samples were flash-frozen on dry ice and then stored at −80° C. until analysis.
Compounds were administered through tail vein injection. Two animals per time point were used. At specified time points after dosing (5 min, 0.25, 0.5, 1, 2, 4, and 6 h), animals were euthanized by CO2. Blood and brain samples were obtained and processed as described above for the oral dosing at 40 mg/kg.
Plasma and brain homogenate samples were extracted using a protein-precipitation method and analyzed by specific LC/MS/MS methods developed for each compound dosed in vivo. The analytical method accuracy and precision were monitored by analyzing quality control (QC) samples that were prepared by the same methods as the plasma or brain homogenate samples. […]

[6] = Single-dose pharmacokinetics in FVB mice (oral gavage, IV); settings: single oral dose, FVB mice, brain
[7] = not given; remark: listed apart in the source
[8] = […]
[9] = tested on: PrP^Sc in dividing ScN2a-c13 cells; settings: read-out: EC50 (ELISA), reduction of PrP^Sc load; dividing ScN2a-c13 cells
[10] = Multiple-dose (three-day) pharmacokinetic studies in FVB mice, drug in liquid diet; type: in vivo, mouse; settings: three days in liquid diet, higher doses (up to 210 mg/kg/day)
Method: Aminothiazole analog (e.g., 4.5 g of 27) was added to 15 mL of pure PEG400, vortexed and sonicated to ensure dissolution, then stored at −4° C. until needed. This highly concentrated PEG400 solution was subsequently diluted to final dosing concentrations, where the volume added was composed of homogenized solid rodent feed, cocoa (taste masking agent), and water. Wild-type FVB mice weigh ˜25 gm and typically drink 20 mL of liquid diet per day, allowing an estimate of daily drug consumption. A single dosing cohort consisted of three mice in a shared cage and liquid diet was provided at the start of the study in sufficient volume to last for the entire three-day trial (˜200 mL). At the end of the three-day dosing period, animals were euthanized by CO2, followed by collection of plasma (cardiac puncture) and removal of whole brain. Heparinized blood was centrifuged to separate plasma and both plasma and brain samples were stored at −80° C. prior to analysis. Plasma samples were prepared for analysis by precipitating proteins and reconstituting the remaining fraction with HPLC mobile phase. Brain samples were typically prepared by four-fold dilution with water after weighing, then homogenized using bead-beater or Polytron™ resulting in a highly concentrated solution that was further diluted with mobile phase as appropriate in preparation for bioanalytical analysis using LC-MS. Analysis was by LC-MS (Shimadzu dual-HPLC pumps, C18 analytical column, with detection using an Applied Biosystems API-4000 triple quadrupole mass spectrometer).
Ten compounds were selected from among the 34 2-AMTs for three-day multiple-dose PK studies at PO doses ranging from 40-210 mg/kg. Selection was based on diversity in potency, chemical structure, and a range of physicochemical properties. We used a liquid diet to facilitate easy drug administration, as well as serve as the daily source of all water and food. This approach was chosen because the mouse bioassay studies that would be used to assess drug effects on survival would be expected to run for 110 to 400 days, or more; gavage dosing for such a long period is not feasible and more stressful to mice. For the multiple-dose PK studies, 4.5 g of the 2-AMT analogs was added to 15 mL of pure PEG400, vortexed and sonicated to ensure dissolution, then stored at −4° C. until needed. This highly concentrated PEG400 solution was subsequently diluted to final dosing concentrations and added to the rodent liquid diet, cocoa (taste-masking agent), and water.
Wild-type FVB mice weigh ˜25 g and typically drink 20 mL of liquid diet per day, allowing an estimate of daily drug consumption. A single dosing cohort consisted of three mice in a shared cage and liquid diet was provided at the start of the study in sufficient volume (˜200 mL) to last for the entire three-day period. At the end of the dosing period, animals were euthanized by CO2, followed by collection of plasma (cardiac puncture) and removal of whole brain. Samples were processed and stored as described above for the 10 mg/kg single-dose studies.
Plasma and brain homogenate samples were extracted using a protein-precipitation method and analyzed by specific LC/MS/MS methods developed for each compound dosed in vivo. The analytical method accuracy and precision were monitored by analyzing quality control (QC) samples that were prepared by the same methods as the plasma or brain homogenate samples. The brain and plasma concentration data were used to calculate the maximal concentration (Cmax), area under the concentration-time curve (AUClast), and absolute bioavailability (% F) by noncompartmental analysis with sparse sampling performed using Phoenix WinNonlin 6.1 software (Pharsight, Mountain View, Calif.).

N2a-cl3 cells [11] = assay: cells; settings: Mus musculus, N2a-cl3, read-out: Dividing Calcein EC50 (μM) Mean (n = 3)
[12] = ScN2a-cl3 dividing cells, 1st determination
[13] = ScN2a-cl3 dividing cells, 2nd determination
[14] = ScN2a-cl3 dividing cells, 3rd determination
[15] = ScN2a-cl3 dividing cells, mean of three determinations
[16] = pH 1.2, simulated gastric fluid
[17] = Table 29, 2-AMT analogs tested for potency, usually n = 3 or more

Cc1ccc(Nc2nc(-c3ccncc3)cs2)nc1 [compound 23]
Permeability PA→B (MDCK-MDR1 cells): 32.6 10^−6 cm/sec
Permeability PB→A (MDCK-MDR1 cells): 42.3 10^−6 cm/sec
EC50 [1]: > 32 µM
Microsome stability T1/2 [2]: 0.333 h
EC50 (N2a-cl3 cells [3]): > 32 µM
EC50 ([4]; ScN2a-cl3 cells, read-out: Antiprion activity ScN2a-cl3 EC50): 1.57 µM
Dividing ELISA pEC50 (μM) 1st Expt. [4, 12]: 5.95
EC50 ([4]; ScN2a-cl3 dividing cells, 1st determination, read-out: Dividing ELISA EC50 (μM) 1st Expt.): 1.12 µM
Dividing ELISA pEC50 (μM) 2nd Expt. [4, 13]: 5.76
EC50 ([4]; ScN2a-cl3 dividing cells, 2nd determination, read-out: Dividing ELISA EC50 (μM) 2nd Expt.): 1.75 µM
Dividing ELISA pEC50 (μM) 3rd Expt. [4, 14]: 5.73
EC50 ([4]; ScN2a-cl3 dividing cells, 3rd determination, read-out: Dividing ELISA EC50 (μM) 3rd Expt.): 1.85 µM
Dividing ELISA pEC50 (μM) Mean [4, 15]: 5.81
EC50 ([4]; ScN2a-cl3 dividing cells, mean of three determinations, read-out: Dividing ELISA EC50 (μM) Mean): 1.57 µM

CC(=O)CC(c1ccccc1)c1c(O)c2ccccc2oc1=O (centres unmarked) [Warfarin, warfarin, reference compound]
Unbound (%), Human Plasma (Binding in human plasma): 0.68 ± 0.0023%

Cc1cccc(Nc2nc(-c3ccc(-c4ccnc(N(C)C)c4)cc3)cs2)n1 [IND-0116095]
solubility (physchem; [16]): > 150 µM
solubility (physchem; pH 7.4, aqueous buffer): 1.6 µM (≈ 0.62 µg/mL)
Analiza solubility (μM) pH 1.2 (pH 1.2): >150 μM

CN(C)c1cccc(Nc2nc(-c3ccc(-c4ccccc4)cc3)cs2)n1 [IND-0116142]
solubility (physchem; [16]): 16.1 µM (≈ 6 µg/mL)
solubility (physchem; pH 7.4, aqueous buffer): < 0.5 µM
Analiza solubility (μM) pH 7.4 (pH 7.4): <0.5 μM

Cc1ccnc(Nc2nc(-c3ccccc3O)cs2)c1 [IND48, 2-[2-(4-Methyl-pyridin-2-ylamino)-thiazol-4-yl]-phenol]
AUC0->last, brain exposure [5]: lowest AUClast values
Brain exposure (AUClast) ranking [6]: lowest AUClast values
EC50 ([4]; AMT analogs tested for potency): > 10 µM
EC50 [4, 17]: > 10 µM
melting point [7]: 249 to 250 °C

Cc1ccc(Nc2nc(-c3cc(-c4ccccc4)no3)cs2)nc1 [compound 27, (5-Methylpyridin-2-yl)-[4-(3-phenylisoxazol-5-yl)-thiazol-2-yl]-amine]
Permeability PA→B (MDCK-MDR1 cells): 6.8 10^−6 cm/sec
Permeability PB→A (MDCK-MDR1 cells): 8.3 10^−6 cm/sec
EC50 [1]: > 32 µM
metabolic stability (in words) [8]: excellent stability
EC50 [9]: 940 nM
Microsome stability T1/2 [2]: 2.52 h
mean brain concentration in excess of EC50 [10]: ≤ 25 fold
EC50 (N2a-cl3 cells [11]): > 32 µM
Dividing ELISA pEC50 (μM) 1st Expt. [4, 12]: 5.96
Dividing ELISA pEC50 (μM) 2nd Expt. [4, 13]: 6.13
Dividing ELISA pEC50 (μM) 3rd Expt. [4, 14]: 6.00
Dividing ELISA pEC50 (μM) Mean [4, 15]: 6.03
EC50 ([4]; read-out: Antiprion activity ScN2a-cl3 EC50, ScN2a-cl3 cells): 0.94 µM
EC50 ([4]; read-out: Dividing ELISA EC50 (μM) 1st Expt., ScN2a-cl3 dividing cells, 1st determination): 1.09 µM
EC50 ([4]; read-out: Dividing ELISA EC50 (μM) 2nd Expt., ScN2a-cl3 dividing cells, 2nd determination): 0.747 µM
EC50 ([4]; read-out: Dividing ELISA EC50 (μM) 3rd Expt., ScN2a-cl3 dividing cells, 3rd determination): 0.994 µM
EC50 ([4]; read-out: Dividing ELISA EC50 (μM) Mean, ScN2a-cl3 dividing cells, mean of three determinations): 0.945 µM

Cc1ccnc(Nc2nc(-c3ccc(O)cc3)cs2)c1 [IND49, 4-[2-(4-Methyl-pyridin-2-ylamino)-thiazol-4-yl]-phenol]
AUC0->last, brain exposure [5]: lowest AUClast values
Brain exposure (AUClast) ranking [6]: lowest AUClast values
EC50 ([4]; AMT analogs tested for potency): > 10 µM
EC50 [4, 17]: > 10 µM
